Measurements taken from PMC11174011, “In Vitro and Molecular Docking Evaluation of the Anticholinesterase and Antidiabetic Effects of Compounds from Terminalia macroptera Guill. & Perr. (Combretaceae)” (Molecules, 2024).
Like-named read-outs stand apart in the source and are kept apart here.

Experiments:
[1] = biological target: AChE (electric eel source) (Electrophorus electricus, UniProt O42275); test: biochemical
[2] = biological target: BChE (horse serum source) (Equus caballus, UniProt P81908); test: biochemical
Description: A standard spectrophotometric method was used to measure the anticholinesterase activity using both the butyrylcholinesterase (BChE) and acetylcholinesterase (AChE) enzymes, as described elsewhere but with slight modifications [59, 60]. […] The substrates used in the AChE and BChE assays were acetylthiocholine iodide and butyrylthiocholine chloride, respectively. DTNB (5,5′-Dithio-bis(2-nitrobenzoic) acid) was used for monitoring the cholinesterase activity.

[3] = biological target: T1, α-amylase (porcine pancreas source) (Sus scrofa, UniProt P00690); test: α-Amylase inhibitory assay (starch iodine protocol); assay type: biochemical
T1 construct: A porcine pancreas source of α-amylase (50 µL), 25 µL of the samples; from tissue; host or cells: porcine pancreas
T1 sequence (P00690 16-511): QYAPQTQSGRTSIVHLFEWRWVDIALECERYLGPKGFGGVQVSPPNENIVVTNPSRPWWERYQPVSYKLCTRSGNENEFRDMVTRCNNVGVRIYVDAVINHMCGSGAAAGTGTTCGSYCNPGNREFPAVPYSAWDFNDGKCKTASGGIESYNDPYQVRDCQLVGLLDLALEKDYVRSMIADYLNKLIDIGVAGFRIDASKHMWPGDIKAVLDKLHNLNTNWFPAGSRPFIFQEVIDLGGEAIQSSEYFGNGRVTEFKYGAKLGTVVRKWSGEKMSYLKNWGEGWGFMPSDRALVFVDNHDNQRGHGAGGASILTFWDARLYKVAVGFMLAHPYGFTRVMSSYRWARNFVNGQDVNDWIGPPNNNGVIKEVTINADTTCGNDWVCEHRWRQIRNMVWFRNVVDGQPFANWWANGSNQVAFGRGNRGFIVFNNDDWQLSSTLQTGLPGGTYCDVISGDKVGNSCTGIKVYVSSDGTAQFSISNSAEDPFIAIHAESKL
Protocol: In the α-amylase inhibition assay, the starch iodine protocol was used with few changes [62, 63]. A porcine pancreas source of α-amylase (50 µL), 25 µL of the samples, 6 mM NaCl, and phosphate buffer (pH 6.9) solution were mixed in a 96-well microplate and incubated at 37 °C for 10 min. Then, 50 µL of 0.05% starch solution was added to the reaction mixture and further incubated under the same conditions, after which Lugol (100 µL) and HCl (0.1 M, 25 µL) solutions were added to complete the reaction.

[4] = biological target: α-glucosidase (fungal source from Saccharomyces cerevisiae); test: α-Glucosidase inhibitory assay (PNPG); assay type: biochemical; set-up: IC50 ± SEM (α-glucosidase): unit not given beside the values; settings: for IC50 ± SEM (α-glucosidase): Table 2, repeats Table 1, unit not given; for α-Glucosidase IC50: maximum concentration 200 µg/mL, means ± SEM of three measurements
[5] = evaluated up to 100 µg/mL, means ± SEM of three measurements, read-out: AChE IC50 (converted)
[6] = evaluated up to 100 µg/mL, means ± SEM of three measurements, read-out: BChE IC50 (converted)
[7] = Table 3, repeats Table 1, unit inferred, read-out: IC50 ± SEM (Butyrylcholinesterase)
[8] = Table 3, repeats Table 1, unit inferred, read-out: IC50 ± SEM (Acetylcholinesterase)
[9] = read-out: IC50 ± SEM (α-amylase), Table 2, repeats Table 1, unit inferred

Chain of AChE (electric eel source) (O42275 24-633): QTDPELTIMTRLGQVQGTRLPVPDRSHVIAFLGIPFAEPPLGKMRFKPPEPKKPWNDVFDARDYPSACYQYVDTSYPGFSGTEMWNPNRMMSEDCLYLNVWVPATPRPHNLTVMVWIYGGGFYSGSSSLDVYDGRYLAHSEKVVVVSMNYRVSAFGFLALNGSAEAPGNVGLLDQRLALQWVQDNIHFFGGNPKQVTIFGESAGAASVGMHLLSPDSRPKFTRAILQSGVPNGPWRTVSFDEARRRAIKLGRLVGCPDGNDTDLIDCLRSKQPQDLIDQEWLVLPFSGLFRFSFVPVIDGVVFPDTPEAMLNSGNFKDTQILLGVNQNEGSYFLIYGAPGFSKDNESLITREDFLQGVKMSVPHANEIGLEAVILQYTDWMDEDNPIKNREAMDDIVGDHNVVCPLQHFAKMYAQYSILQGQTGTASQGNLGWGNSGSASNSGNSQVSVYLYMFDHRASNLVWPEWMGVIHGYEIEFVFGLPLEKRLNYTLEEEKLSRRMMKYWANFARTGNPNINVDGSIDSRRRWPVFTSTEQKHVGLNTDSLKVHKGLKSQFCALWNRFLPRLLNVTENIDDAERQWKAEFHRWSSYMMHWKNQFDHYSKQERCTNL
Chain of BChE (horse serum source) (P81908 whole entry): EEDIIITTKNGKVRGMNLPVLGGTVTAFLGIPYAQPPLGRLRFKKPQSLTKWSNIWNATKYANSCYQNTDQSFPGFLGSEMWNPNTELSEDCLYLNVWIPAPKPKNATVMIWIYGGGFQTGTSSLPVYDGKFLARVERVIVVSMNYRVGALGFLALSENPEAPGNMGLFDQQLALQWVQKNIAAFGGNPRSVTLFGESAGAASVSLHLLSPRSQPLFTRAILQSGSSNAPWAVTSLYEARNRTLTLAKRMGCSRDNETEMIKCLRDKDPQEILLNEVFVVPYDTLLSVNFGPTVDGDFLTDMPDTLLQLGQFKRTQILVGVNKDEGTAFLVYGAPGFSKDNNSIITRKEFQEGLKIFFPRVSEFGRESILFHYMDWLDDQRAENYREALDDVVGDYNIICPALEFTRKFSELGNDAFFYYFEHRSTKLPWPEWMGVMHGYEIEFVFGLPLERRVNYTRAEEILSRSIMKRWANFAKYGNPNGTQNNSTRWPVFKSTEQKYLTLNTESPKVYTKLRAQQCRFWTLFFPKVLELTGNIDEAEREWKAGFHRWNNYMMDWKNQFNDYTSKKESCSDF

Compound | IC50 [1, 5] | IC50 [2, 6] | IC50 [3] | IC50 ± SEM (α-glucosidase) [4] | α-Glucosidase IC50 [4] | IC50 [2, 7] | IC50 [1, 8] | IC50 [2] | IC50 ([2]; read-out: IC50 ± SEM (Butyrylcholinesterase), Table 3, repeats Table 1, unit inferred) | IC50 [3, 9]
COc1c(O)cc2c(=O)oc3c(OC)c(O)cc4c(=O)oc1c2c34 [Compound 1, 3,3′-di-O-methyl ellagic acid] | 142 µM | 153 µM | 203 µM | 74.18 ± 0.29 | 74.18 ± 0.29 µg/mL | – | – | – | – | –
COc1cc2c(=O)oc3c(OC)c(O[C@@H]4OC[C@@H](O)[C@H](O)[C@H]4O)cc4c(=O)oc(c1OC)c2c34 [Compound 2, 3,3′,4′-tri-O-methyl ellagic acid-4-O-β-D-xylopyranoside] | 129 µM | > 210 µM | 216 µM | 121.51 ± 0.65 | 121.51 ± 0.65 µg/mL | > 210 µM | – | – | – | –
COc1cc2c(=O)oc3c(OC)c(O[C@@H]4O[C@H](CO)[C@@H](O)[C@H](O)[C@H]4O)cc4c(=O)oc(c1OC)c2c34 [Compound 3, 3,3′,4′-tri-O-methyl ellagic acid-4-O-β-D-glucopyranoside] | 118 µM | 149 µM | 217 µM | 137.51 ± 0.81 | 137.51 ± 0.81 µg/mL | – | – | – | – | –
COc1c(O)cc2c(=O)oc3c(OC)c(O[C@@H]4O[C@H](CO)[C@@H](O)[C@H](O)[C@H]4O)cc4c(=O)oc1c2c34 [Compound 4, 3,3′-di-O-methyl ellagic acid-4-O-β-D-glucopyranoside] | 129 µM | 182 µM | 185 µM | 97.75 ± 0.49 | 97.75 ± 0.49 µg/mL | – | – | – | – | –
CC1OC(Oc2c(-c3cc(O)c(O)c(O)c3)oc3cc(O)cc(O)c3c2=O)C(O)C(O)C1O (stereo not drawn) [Compound 5, myricetin-3-O-rhamnoside] | > 215 µM | – | 140 µM | 69.02 ± 0.65 | 69.02 ± 0.65 µg/mL | – | > 215 µM | > 215 µM | > 215 µM | –
O=C(O)C1=C[C@@H](O)[C@@H](O)[C@H](O)C1 [Compound 6, shikimic acid] | 317 µM | – | > 1150 µM | >200 | >200 µg/mL | – | – | 337 µM | – | > 1150 µM
CC1(C)CC[C@]2(C(=O)O)CC[C@]3(C)C(=CC[C@@H]4[C@@]5(C)C[C@@H](O)[C@H](O)[C@@](C)(CO)[C@@H]5CC[C@]43C)[C@@H]2[C@@H]1O [Compound 7, arjungenin] | 106 µM | > 198 µM | 369 µM | 192.17 ± 0.78 | 192.17 ± 0.78 µg/mL | > 198 µM | – | – | – | –
CC1(C)CC[C@]2(C(=O)O)CC[C@]3(C)C(=CC[C@@H]4[C@@]5(C)C[C@@H](O)[C@H](O)[C@@](C)(CO)[C@@H]5[C@H](O)C[C@]43C)[C@@H]2C1 [Compound 8, terminolic acid] | 130 µM | > 198 µM | 289 µM | 155.84 ± 0.31 | 155.84 ± 0.31 µg/mL | > 198 µM | – | – | – | –
CC1(C)CCC2(C(=O)OC3OC(CO)C(O)C(O)C3O)CCC3(C)C(=CCC4C5(C)CC(O)C(O)C(C)(C)C5CCC43C)C2C1O (stereo not drawn) [Compound 9, 24-deoxysericoside] | > 154 µM | > 154 µM | > 307 µM | >200 | >200 µg/mL | > 154 µM | > 154 µM | – | – | > 307 µM
CC1(C)CC[C@]2(C(=O)O[C@@H]3O[C@H](CO)[C@@H](O)[C@H](O)[C@H]3O)CC[C@]3(C)C(=CC[C@@H]4[C@@]5(C)C[C@@H](O)[C@H](O)[C@@](C)(CO)[C@@H]5CC[C@]43C)[C@@H]2[C@@H]1O [Compound 10, arjunglucoside I] | 148 µM | > 150 µM | > 300 µM | >200 | >200 µg/mL | > 150 µM | – | – | – | > 300 µM
CC1(C)CC[C@]2(C(=O)O[C@@H]3O[C@H](CO)[C@@H](O)[C@H](O)[C@H]3O)CC[C@]3(C)C(=CC[C@@H]4[C@@]5(C)C[C@@H](O)[C@H](O)[C@@](C)(CO)[C@@H]5[C@H](O)C[C@]43C)[C@@H]2C1 [Compound 11, chebuloside II] | > 150 µM | > 150 µM | > 300 µM | >200 | >200 µg/mL | > 150 µM | > 150 µM | – | – | > 300 µM
